In US7604982B2, “High-throughput screening method for intergrin antagonist and new peptide screened therefrom” (Proteogen Inc., priority 2003, dated 2009):
Residues, ends and D or L forms follow the SMILES beside them.

B1: recombinant human endostatin: recombinant human endostatin interacting with endothelial alpha(5) and alpha(v)-integrin (protein, UniProt P39060 1572-1754, looked up)
Endostatin: HSHRDFQPVLHLVALNSPLSGGMRGIRGADFQCFQQARAVGLAGTFRAFLSSRLQDLYSIVRRADRAAVPIVNLKDELLFPSWEALFSGSEGPLKPGARIFSFDGKDVLRHPTWPQKSVWHGSDPNGRRLTESYCETWRTEAPSATGQASSLLGGRLLGQSAASCHHAYIVLCIENSFMTASK
modifications: Endostatin

Legend:
human malignant melanoma = conditions: cited from earlier work
[1] = biological target: T1, integrin αvβ3-vitronectin interaction (Homo sapiens, UniProt P05106+P06756); assay: Competitive inhibition of integrin αvβ3-vitronectin interaction on integrin microarray (ProteoChip); format: binding; conditions: for IC50: half-maximal inhibition concentration relative to control without peptides, ND means no activity was detected; for inhibition of integrin αvβ3-vitronectin interaction (relative fluorescence intensity): vitronectin 100 ng/ml labeled with Cy-3, colour scale white highest, blue lowest
T1 construct: purchased Chemicon International, Inc. (CA, USA)
From the text: ProteoChip™ (Proteogen, Inc., Seoul, South Korea) was used as a protein chip and integrins were spotted on the ProteoChip™ (Proteogen, Inc., Seoul, South Korea) with the microarrayer (CM-1000; Proteogen, Inc., Seoul, South Korea) to fabricate integrin receptor microarray (See Lee, Y. S. et al.: ProteoChip: a highly sensitive protein microarray proposed by a novel method of protein immobilization for application of protein-protein interaction studies, Proteomics 2003; 3: 2289-2304). Integrin α11bβ3 was purified to homogeneity by GRGDSPK-Sepharose column chromatography from the platelet (See Kang I. C. and Kim D. S., Analysis of potent glycoprotein IIb-IIIa antagonist from natural sources. J Biochem Mol Biol 1998; 31: 515-518), and Integrin αvβ3 was commercially obtained from Chemicon International, Inc. (CA, USA).
Integrins (40 μg/mL) diluted with a phosphate-buffered saline (PBS) solution containing 10 mM β-octylthioglucopyranoside, 1.0 mM CaCl2, 11.0 mM MgCl2, and 30% glycerol were spotted and incubated at 37° C. for 3 hours, and then the remaining integrins after binding were washed with 0.5% PBST (PBS containing 0.5% Tween-20). The prepared integrin microarray was stored at 4° C. until before use. This integrin microarray (integrin-binding protein chip) was used for high-throughput screening of integrin receptor antagonist (See FIG. 1).
Mixtures of ligand protein (vitronectin 100 ng/ml) labeled with fluorescence (Cy-3) and known integrin antagonists such as disintegrins (echistatin 250 μg/ml, flavoridin 250 μg/ml, kistrin 250 μg/ml, and salmosin 2.6 ng/ml), a monoclonal antibody (mAb) against integrin 11.0 mg/ml, and various concentrations of synthetic RGD peptides (echistatin, flavoridin, kistrin: Sigma-Aldrich, USA; Salmosin: isolated and purified from recombinant E. Coli; monoclonal antibody against integrin: Chemicon International, Inc., USA; synthetic ROD peptides: synthesized in the Korea Research Institute of Bioscience and Biotechnology, South Korea) were dropped on the integrin receptor of the integrin αvβ3-binding protein chip prepared in Example 1 by using micropipette or microarrayer (CM-1000; Proteogen, Inc., Seoul, South Korea) and then were reacted in a oven of 37° C. and over 75% humidity for 4-12 hours. After reaction, those were washed for about 10 minutes with 0.5% PBST containing 3% BSA. Competitive inhibitory abilities of antagonists were measured by analyzing the degree of ligand binding as relative fluorescence intensity with a fluorescence scanner.
Antagonists used in FIG. 4 are already known as antagonistic material of integrin αvβ3-vitronectin. This is also a result analyzing whether mixing antagonists and vitronectin labeled with fluorescence inhibit or not the interaction between integrin αvβ3 and vitronectin. Control are the group having only vitronectin labeled with fluorescence without antagonists and the other groups are the results performed with antagonists and peptides including the amino acid sequence of RGE. The fluorescence intensity in FIG. 4 is expressed as rainbow colors like the explanation of FIG. 3. […] However, in case of groups having antagonists, antagonists inhibited the interaction between integrin αvβ3 and vitronectin, that is, integrin αvβ3 didn't bind to vitronectin, which made the color of fluorescence blue, the lowest color.
Mixtures of ligand protein (Fibrinogen 100 ng/ml and vitronectin 100 ng/ml) labeled with fluorescence (Cy-3) and 114 peptide pools from peptide library were dropped on the integrin receptor of integrin αvβ3-binding protein chip prepared in Example 1 by using micropipette or microarrayer (CM-1000; Proteogen, Inc., Seoul, South Korea) and then were reacted in oven of 37° C. and over 75% humidity for 4-12 hours. After reaction, those were washed for about 10 minutes with 0.5% PBST containing 3% BSA. […]

[2] = test system: angiogenesis in chick chorioallantoic membrane; assay: Inhibition assay of angiogenesis in a chick chorioallantoic membrane; format: in vivo; conditions: in the presence of bFGF, FIG. 10
Method: FIG. 10 is the result of analyzing effects of antagonistic peptides of integrin αvβ3 on angiogenesis in a chick chorioallantoic membrane. In vivo angiogenesis inhibition test was performed as one of biological characterization researches of the antagonistic peptides. A, positive control, is the result of the group treated with only bFGF without peptide; B, negative control, is the result of the group having only cells without bFGF; C is the result of the group treated with GRGDSP peptide in the presence of bFGF; D is the result of the group treated with HGDVHK peptide in the presence of bFGF; E is the result of the group treated with HSDVHK peptide in the presence of bFGF; and F is the result of the group treated with HHDVHK peptide in the presence of bFGF.
Fertilized eggs was purchased from Pulmuone Corp. (South Korea), Thermanox coverslips for sample loading was purchased from Nunc Company (USA), and 10% Intralipose (fat emulsion) for observation and syringes were purchased from Green Cross Company (South Korea).
On day 1 (0-day embryo): Fertilized egg was incubated in a incubator of 37-38° C. and over 90% humidity. The temperature and humidity were often checked to make sure the above conditions.
On day 3 (2-day embryo): The peaked end of fertilized egg was cracked with a knife. […] The pore was sealed with transparent tape to block infection and dryness of the fertilized egg. The egg was incubated again with the direction of pore toward the bottom.
On day 4 (3-day embryo): The window which diameter is 2-3 cm was made in the direction of air sac of fertilized egg (in the opposite direction of the above syringe pore) and the eggs confirmed as fertilized egg were sealed with broad transparent tape and incubated again. For reference, round window was made as follows. A round shape of scratch was made on the eggshell with a sharp knife and eggshell then was taken away with a pincette.
On day 5 (4.5-day embryo): CAM is usually created at this time and the diameter is about 2-5 mm. […]

[3] = test system: human umverical vein endothelial cell (HUVEC); assay: HUVEC migration assay (Boyden chamber, bFGF chemoattractant); format: cell-based; conditions: bFGF-induced, 4 hours at 37° C., FIG. 9
Method: HUVE cell was cultured in M199 medium containing 10% fetal calf serum and 3 ng/ml bFGF. This cell was cultured in the control medium (M199 containing 0.1% BSA) for 16 hours to be used in migration assay, and then 3×10^4 cells were added to upper chamber of porous membrane coated with gelatin (40 μM) and inserted in Boyden chamber. Samples were treated at the same time in a concentration-dependent manner. Chemoattractant, bFGF, was added in the bottom chamber to induce HUVE cell to migrate into lower chamber. The chamber was incubated for 4 hours at 37° C. and then the membrane was removed. After fixation, cell was stained with crystal violet and cells migrating across the membrane were counted with a microscope.

[4] = test system: Lewis lung carcinomas cells; assay: Growth inhibition assay of subcutaneous solid tumor; format: in vivo, C57BL/6 mice; conditions: 100 mg/kg mouse, subcutaneous injection once daily, FIGS. 11-13
Method: Lewis lung carcinomas cells (1×10^6) were injected subcutaneously into dorsal midline of C57BL/6 mice. When tumors were 100-200 mm^3 in volume, the mice were randomized into three groups. Two groups received HGDVHK or HSDVHK (100 mg/kg mouse), respectively, in PBS via subcutaneous injection at a site distant from the tumor once daily. […] The sizes of the tumors in all groups were measured at the same time everyday. The experiments were terminated when the control mice began to die.

[5] = test system: blood endothelial alpha(5) and alpha(v)-integrin; conditions: endothelial cell migration; cited from earlier work

Molecule	IC50 [1] [pM]	inhibition of integrin αvβ3-vitronectin interaction (relative fluorescence intensity) [1]	inhibitory effect on CAM angiogenesis [2]	inhibition of HUVEC migration [3]	other results
CC(C)[C@H]1C(=O)N[C@@H](CCCN=C(N)N)C(=O)NCC(=O)N[C@@H](CC(=O)O)C(=O)N[C@H](Cc2ccccc2)C(=O)N1C [EMD121974]	–	–	–	–	angiogenesis inhibition and cancer growth suppression in animal test (human malignant melanoma): activity inhibiting angiogenesis and thus suppressing cancer growth
CC(C)C[C@H](NC(=O)[C@H](CC(=O)O)NC(=O)CNC(=O)[C@@H](N)Cc1c[nH]cn1)C(=O)N[C@@H](Cc1c[nH]cn1)C(=O)N[C@@H](CCCCN)C(N)=O [HGDLHK-NH2] (H-HGDLHK-NH2; N-terminus assumed)	43.6	–	–	–	–
CC(C)[C@H](NC(=O)[C@H](CC(=O)O)NC(=O)CNC(=O)[C@@H](N)Cc1c[nH]cn1)C(=O)N[C@@H](Cc1c[nH]cn1)C(=O)N[C@@H](CCCCN)C(N)=O [HGDVHK-NH2] (H-HGDVHK-NH2; N-terminus assumed)	64.7	stronger inhibitory activity in integrin αvβ3-specific inhibitory test than GRGDSP	showed different inhibitory effects	significantly inhibited	–
CC(C)C[C@H](NC(=O)CNC(=O)[C@@H](N)Cc1c[nH]cn1)C(=O)N[C@H](C(=O)N[C@@H](Cc1c[nH]cn1)C(=O)N[C@@H](CCCCN)C(N)=O)C(C)C [HGLVHK-NH2] (H-HGLVHK-NH2; N-terminus assumed)	3.53	–	–	–	–
CC(C)C[C@H](NC(=O)[C@H](CC(C)C)NC(=O)[C@H](Cc1c[nH]cn1)NC(=O)[C@@H](N)Cc1c[nH]cn1)C(=O)N[C@@H](Cc1c[nH]cn1)C(=O)N[C@@H](CCCCN)C(N)=O [HHLLHK-NH2] (H-HHLLHK-NH2; N-terminus assumed)	4.34	–	–	–	–
CC(C)C[C@H](NC(=O)[C@H](Cc1c[nH]cn1)NC(=O)[C@@H](N)Cc1c[nH]cn1)C(=O)N[C@H](C(=O)N[C@@H](Cc1c[nH]cn1)C(=O)N[C@@H](CCCCN)C(N)=O)C(C)C [HHLVHK-NH2] (H-HHLVHK-NH2; N-terminus assumed)	407	–	–	–	–
CC(C)[C@H](NC(=O)[C@H](CC(=O)O)NC(=O)[C@H](CO)NC(=O)[C@@H](N)Cc1c[nH]cn1)C(=O)N[C@@H](Cc1c[nH]cn1)C(=O)N[C@@H](CCCCN)C(N)=O [HSDVHK-NH2] (H-HSDVHK-NH2; N-terminus assumed)	2.41	stronger inhibitory activity in integrin αvβ3-specific inhibitory test than GRGDSP	showed different inhibitory effects	significantly inhibited	growth of solid tumor [4]: largely suppressed
CC(C)C[C@H](NC(=O)[C@H](CO)NC(=O)[C@@H](N)Cc1c[nH]cn1)C(=O)N[C@H](C(=O)N[C@@H](Cc1c[nH]cn1)C(=O)N[C@@H](CCCCN)C(N)=O)C(C)C [HSLVHK-NH2] (H-HSLVHK-NH2; N-terminus assumed)	64	–	–	–	–
HHDVHK [HHDVHK-NH2]	–	didn't reveal any inhibitory activity	had little effect	had little effect	–
B1	–	–	–	–	inhibition of integrin-dependent endothelial function [5]: inhibit integrin-dependent endothelial function such as endothelial cell migration
